Patent US20170000133A1, “BENZOXABOROLE FUNGICIDES” (SYNGENTA PARTICIPATIONS AG, priority 2013, published 2017)

tested on: Pythium ultimum; experiment: Pythium ultimum / liquid culture (seedling damping off); format: cell-based; conditions: Globisporangium ultimum; 200 ppm; potato dextrose broth, 24° C., 2-3 days after application; read-out: disease control (inhibition of growth determined photometrically)

Structure (SMILES) | inhibition at 200 ppm [%]
O=C(OCc1ncc(C(F)(F)F)cc1Cl)c1cc2c(cc1Cl)COB2O [Compound 221] | ≥ 80
COCCOC(=O)c1cc2c(cc1Cl)COB2O [Compound 224] | ≥ 80
O=C(OC1CCOCC1)c1cc2c(cc1Cl)COB2O [Compound 237] | ≥ 80
O=C(NCCOc1ccccc1)c1ccc2c(c1)B(O)OC2 [Compound 267] | ≥ 80
Cc1ccccc1NC(=O)c1ccc2c(c1)B(O)OC2 [Compound 280] | ≥ 80
CC(=O)c1sc(NC(=O)c2ccc3c(c2)B(O)OC3)nc1C [Compound 302] | ≥ 80
O=C(OCC1CCSCC1)c1ccc2c(c1)B(O)OC2 [Compound 319] | ≥ 80
O=C(OCc1cccc2ccccc12)c1ccc2c(c1)B(O)OC2 [Compound 333] | ≥ 80
O=C(OCc1ncc(C(F)(F)F)cc1Cl)c1ccc2c(c1)B(O)OC2 [Compound 347] | ≥ 80
COCCOC(=O)c1ccc2c(c1)B(O)OC2 [Compound 350] | ≥ 80
O=C(OCCC(F)(F)F)c1ccc2c(c1)B(O)OC2 [Compound 369] | ≥ 80
COCCOCCOCCOC(=O)c1ccc2c(c1)B(O)OC2 [Compound 371] | ≥ 80
C[Si](C)(C)CCCOC(=O)c1cc2c(cc1F)COB2O [Compound 377] | ≥ 80
O=C(OCc1ccc(C(F)(F)F)nc1)c1cc2c(cc1F)COB2O [Compound 405] | ≥ 80
O=C(OCC(F)F)c1cc2c(cc1F)COB2O [Compound 427] | ≥ 80

tested on: Glomerella lagenarium (Colletotrichum lagenarium); experiment: Glomerella lagenarium (Colletotrichum lagenarium) / liquid culture (anthracnose); format: cell-based; conditions: Colletotrichum orbiculare, PDB potato dextrose broth, 24° C., 3-4 days after application, read-out: disease control (inhibition of growth measured photometrically)
Experimental: (§1) 11. Glomerella lagenarium (Colletotrichum lagenarium)/Liquid Culture (Anthracnose): Conidia of the fungus from cryogenic storage were directly mixed into nutrient broth (PDB potato dextrose broth). After placing a DMSO solution of test compound into a 96-well microtiter plate at an application rate of 200 ppm, the nutrient broth containing the fungal spores was added. The test plates were incubated at 24° C. and the inhibition of growth was measured photometrically 3-4 days after application.

Structure (SMILES) | inhibition at 200 ppm [%]
Cc1ccccc1NC(=O)c1cc2c(cc1Cl)COB2O [Compound 112] | ≥ 80
O=C(OCc1ncc(C(F)(F)F)cc1Cl)c1cc2c(cc1Cl)COB2O [Compound 221] | ≥ 80
COCCOC(=O)c1cc2c(cc1Cl)COB2O [Compound 224] | ≥ 80
O=C(OC1CCOCC1)c1cc2c(cc1Cl)COB2O [Compound 237] | ≥ 80
Cc1ccccc1NC(=O)c1ccc2c(c1)B(O)OC2 [Compound 280] | ≥ 80
O=C(OCc1ccc(C(F)(F)F)cc1Cl)c1ccc2c(c1)B(O)OC2 [Compound 326] | ≥ 80
O=C(OCCC(F)(F)F)c1ccc2c(c1)B(O)OC2 [Compound 369] | ≥ 80
O=C(OCC(F)F)c1cc2c(cc1F)COB2O [Compound 427] | ≥ 80

tested on: Mycosphaerella arachidis (Cercospora arachidicola); experiment: Mycosphaerella arachidis (Cercospora arachidicola) / liquid culture (early leaf spot); format: cell-based; conditions: PDB potato dextrose broth, 24° C., 4-5 days after application, read-out: disease control (inhibition of growth determined photometrically)
Experimental: as §1, with “12. Mycosphaerella arachidis (Cercospora arachidicola)/Liquid” for “11. Glomerella lagenarium (Colletotrichum lagenarium)/Liquid”, “(Early Leaf Spot):” for “(Anthracnose):”, “determined” for “measured”, “4-5” for “3-4”

Structure (SMILES) | inhibition at 200 ppm [%]
O=C(NCCOc1ccccc1)c1ccc2c(c1)B(O)OC2 [Compound 267] | ≥ 80
CC(=O)c1sc(NC(=O)c2ccc3c(c2)B(O)OC3)nc1C [Compound 302] | ≥ 80
O=C(OCC1CCSCC1)c1ccc2c(c1)B(O)OC2 [Compound 319] | ≥ 80
O=C(OCc1cccc2ccccc12)c1ccc2c(c1)B(O)OC2 [Compound 333] | ≥ 80
O=C(OCc1ncc(C(F)(F)F)cc1Cl)c1ccc2c(c1)B(O)OC2 [Compound 347] | ≥ 80
COCCOC(=O)c1ccc2c(c1)B(O)OC2 [Compound 350] | ≥ 80
O=C(OCCCCc1ccc2ccccc2c1)c1ccc2c(c1)B(O)OC2 [Compound 353] | ≥ 80
COCCOCCOCCOC(=O)c1ccc2c(c1)B(O)OC2 [Compound 371] | ≥ 80
C[Si](C)(C)CCCOC(=O)c1cc2c(cc1F)COB2O [Compound 377] | ≥ 80
O=C(OCc1ccc(C(F)(F)F)nc1)c1cc2c(cc1F)COB2O [Compound 405] | ≥ 80
O=C(OCCCCc1ccc2ccccc2c1)c1cc2c(cc1F)COB2O [Compound 415] | ≥ 80

tested on: Mycosphaerella graminicola (Septoria tritici); experiment: Mycosphaerella graminicola (Septoria tritici) / liquid culture (Septoria blotch); format: cell-based; conditions: Zymoseptoria tritici, PDB potato dextrose broth, 24° C., 4-5 days after application, read-out: disease control (inhibition of growth determined photometrically)
Experimental: as §1, with “13. Mycosphaerella graminicola (Septoria tritici)/Liquid” for “11. Glomerella lagenarium (Colletotrichum lagenarium)/Liquid”, “(Septoria Blotch):” for “(Anthracnose):”, “determined” for “measured”, “4-5” for “3-4”

Structure (SMILES) | inhibition at 200 ppm [%]
O=C(OCC1CCSCC1)c1ccc2c(c1)B(O)OC2 [Compound 319] | ≥ 80
O=C(OCc1cccc2ccccc12)c1ccc2c(c1)B(O)OC2 [Compound 333] | ≥ 80
C[Si](C)(C)CCCOC(=O)c1cc2c(cc1F)COB2O [Compound 377] | ≥ 80

tested on: Gaeumannomyces graminis; experiment: Gaeumannomyces graminis / liquid culture (take-all of cereals); format: cell-based; conditions: PDB potato dextrose broth, 24° C., 4-5 days after application, read-out: disease control (inhibition of growth determined photometrically)
Experimental: 14. Gaeumannomyces graminis/Liquid Culture (Take-all of Cereals): Mycelial fragments of the fungus from cryogenic storage were directly mixed into nutrient broth (PDB potato dextrose broth). After placing a DMSO solution of test compound into a 96-well microtiter plate at an application rate of 200 ppm, the nutrient broth […], containing the fungal spores is added. The test plates were incubated at 24° C. and the inhibition of growth was determined photometrically 4-5 days after application.

Structure (SMILES) | inhibition at 200 ppm [%]
O=C(OCc1ncc(C(F)(F)F)cc1Cl)c1cc2c(cc1Cl)COB2O [Compound 221] | ≥ 80
COCCOC(=O)c1cc2c(cc1Cl)COB2O [Compound 224] | ≥ 80
O=C(OCc1ccc(C(F)(F)F)cc1Cl)c1ccc2c(c1)B(O)OC2 [Compound 326] | ≥ 80
O=C(OCc1ncc(C(F)(F)F)cc1Cl)c1ccc2c(c1)B(O)OC2 [Compound 347] | ≥ 80
O=C(OCCCCc1ccc2ccccc2c1)c1ccc2c(c1)B(O)OC2 [Compound 353] | ≥ 80
O=C(OCCC(F)(F)F)c1ccc2c(c1)B(O)OC2 [Compound 369] | ≥ 80
C[Si](C)(C)CCCOC(=O)c1cc2c(cc1F)COB2O [Compound 377] | ≥ 80
O=C(OCCCCc1ccc2ccccc2c1)c1cc2c(cc1F)COB2O [Compound 415] | ≥ 80

tested on: Monographella nivalis (Microdochium nivale); experiment: Monographella nivalis (Microdochium nivale) / liquid culture (foot rot cereals); format: cell-based; conditions: PDB potato dextrose broth, 24° C., 4-5 days after application, read-out: disease control (inhibition of growth determined photometrically)

Structure (SMILES) | inhibition at 200 ppm [%]
O=C(OCc1ncc(C(F)(F)F)cc1Cl)c1cc2c(cc1Cl)COB2O [Compound 221] | ≥ 80
COCCOC(=O)c1cc2c(cc1Cl)COB2O [Compound 224] | ≥ 80
O=C(OC1CCOCC1)c1cc2c(cc1Cl)COB2O [Compound 237] | ≥ 80
O=C(OCC1CCSCC1)c1ccc2c(c1)B(O)OC2 [Compound 319] | ≥ 80
O=C(OCc1ccc(C(F)(F)F)cc1Cl)c1ccc2c(c1)B(O)OC2 [Compound 326] | ≥ 80
O=C(OCc1cccc2ccccc12)c1ccc2c(c1)B(O)OC2 [Compound 333] | ≥ 80
COCCOC(=O)c1ccc2c(c1)B(O)OC2 [Compound 350] | ≥ 80
O=C(OCCC(F)(F)F)c1ccc2c(c1)B(O)OC2 [Compound 369] | ≥ 80
C[Si](C)(C)CCCOC(=O)c1cc2c(cc1F)COB2O [Compound 377] | ≥ 80
O=C(OCc1ccc(C(F)(F)F)nc1)c1cc2c(cc1F)COB2O [Compound 405] | ≥ 80
O=C(OCCCCc1ccc2ccccc2c1)c1cc2c(cc1F)COB2O [Compound 415] | ≥ 80
O=C(OCC(F)F)c1cc2c(cc1F)COB2O [Compound 427] | ≥ 80

tested on: Thanatephorus cucumeris (Rhizoctonia solani); experiment: Thanatephorus cucumeris (Rhizoctonia solani) / liquid culture (foot rot, damping-off); format: cell-based; conditions: PDB potato dextrose broth, 24° C., 3-4 days after application, read-out: disease control (inhibition of growth determined photometrically)
Experimental: 17. Thanatephorus cucumeris (Rhizoctonia solani)/Liquid Culture (Foot Rot, Damping-Off): Mycelia fragments of a newly grown liquid culture of the fungus were directly mixed into nutrient broth (PDB potato dextrose broth). After placing a DMSO solution of the test compounds into a 96-well microtiter plate at an application rate of 200 ppm, the nutrient broth containing the fungal material was added. The test plates were incubated at 24° C. and the inhibition of growth was determined photometrically 3-4 days after application.

Structure (SMILES) | inhibition at 200 ppm [%]
O=C(OCC1CCSCC1)c1ccc2c(c1)B(O)OC2 [Compound 319] | ≥ 80
COCCOC(=O)c1ccc2c(c1)B(O)OC2 [Compound 350] | ≥ 80
O=C(OCCC(F)(F)F)c1ccc2c(c1)B(O)OC2 [Compound 369] | ≥ 80
C[Si](C)(C)CCCOC(=O)c1cc2c(cc1F)COB2O [Compound 377] | ≥ 80
O=C(OCc1ccc(C(F)(F)F)nc1)c1cc2c(cc1F)COB2O [Compound 405] | ≥ 80
O=C(OCCCCc1ccc2ccccc2c1)c1cc2c(cc1F)COB2O [Compound 415] | ≥ 80
O=C(OCC(F)F)c1cc2c(cc1F)COB2O [Compound 427] | ≥ 80
